The conditions of data set [1]: degassed CH3CN solution, λex=355 nm; cited from earlier work.
The nature of data set [2]: Photophysical properties (emission, lifetime, luminescence quantum yield). It counts as physicochemical. To be noted: for Φem / λem / τo: 298 K. The method, then: ^1H NMR spectra were recorded on a Bruker 400 MHz AVANCE III spectrometer at 298 K using deuterated solvents. Chemical shifts (8, ppm) were reported relative to tetramethylsilane (TMS). Positive-ion electrospray ionization (ESI) mass spectra were recorded on a Perkin Elmer Sciex API 365 mass spectrometer at 298 K. IR spectra of the samples in KBr pellets were recorded in the range of 4000-400 cm^−1 using a Perkin Elmer FTIR-1600 spectrophotometer. Electronic absorption and steady-state emission spectra were recorded on a Hewlett-Packard 8453 diode array spectrophotometer and a SPEX Fluorolog 3-TCSPC spectrofluorometer, respectively. Emission lifetimes were measured in the Fast MCS or TCSPC mode with a NanoLED N-375 as the excitation source. Unless specified otherwise, all solutions for photophysical studies were degassed with no fewer than four successive freeze-pump-thaw cycles and stored in a 10 cm^3 round bottomed flask equipped with a side-arm 1-cm fluorescence cuvette and sealed from the atmosphere by a Rotaflo HP6/6 quick-release Teflon stopper. Luminescence quantum yields were measured by the optically dilute method (Demas, J N., Crosby, G A J., Phys. Chem., 1971, 75:991-1024) using a degassed CH3CN solution of [Re(phen)(CO)3(pyridine)](CF3SO3) (phen=1,10-phenanthroline) (φem=0.18, λex=355 nm) as the standard solution.
The photophysical data are summarized in Table 2, and the emission spectra of metal complex of Formula (IV) in CH3CN and aqueous buffer solutions at 298 K are shown in FIG. 2.

The nature of data set [3]: Reaction kinetics with H2O2 under pseudo first-order conditions, UV-Visible spectroscopy. It counts as physicochemical. To be noted: 298 K. Here is the method: Kinetics experiments for the reactions of metal complex of Formula (IV) with H2O2 were performed under pseudo first-order conditions. Metal complex of Formula (IV) (10 μM) was reacted with H2O2 in a 1:100, 1:200, 1:400, or 1:800 molar ratio in potassium phosphate buffer (50 mM, pH 7.4)/DMSO (99:1, v/v) at 298 K. The reactions were monitored by UV-Visible spectroscopy at ca. 343 nm. The kobs values were determined by fitting the experimental data to the first-order rate equation, [A]=[A]oe^−kt. The k2 value was determined by plotting kobs versus [H2O2] and the rate constant corresponds to the determined slope.
The change in absorption spectrum of metal complex of Formula (IV) (10 μM) in aerated potassium phosphate buffer (50 mM, pH 7.4)/DMSO (99:1, v/v) in the presence of H2O2(1 mM) at 298 K is shown in FIG. 3. […] The pseudo first-order rate constant (kobs) of reaction of metal complex of Formula (IV) (10 μM) was determined to be (0.6375±0.0092)×10^−3 s^−1. The plot of kobs of reactions of metal complex of Formula (IV) with H2O2 against various concentrations of H2O2 is shown in FIG. 4.

Data set [4] in a line: H2O2-sensing emission titration. As to conditions: complex 10 μM, buffer pH 7.4/DMSO (99:1). It counts as physicochemical. The method, then: (§1) In H2O2-sensing studies, various amounts of H2O2 (25 mM; 0-20 μL) were added to a series of solutions containing metal complex of Formula (IV) (10 μM) in potassium phosphate buffer (50 mM, pH 7.4)/DMSO (99:1, v/v). The reaction mixtures were incubated in the dark at room temperature for 1.5 h, and their emission spectra were then measured. The limit of detection was determined according to the equation, […]. In the selectivity studies, different reactive oxygen species (100 μM) were added into a series of solutions containing metal complex of Formula (IV) (10 μM) in potassium phosphate buffer (50 mM, pH 7.4)/DMSO (99:1, v/v). The reaction mixtures were incubated in the dark at room temperature for 1.5 h, and their emission spectra were then measured. H2O2 was diluted from a stabilized 30% aqueous solution. TBHP was diluted from a 70% aqueous solution. NOC-7, KO2, and NaOCl were used as the sources of NO, O2^−, and ClO^−, respectively. Singlet oxygen (^1O2) was generated by the reaction of NaOCl and H2O2(Held, A M. Et al., Am. Chem. Soc., 1978, 100:5732-5740; Aubry, J M., J. Am. Chem. Soc., 1985, 107:5844-5849). Hydroxyl radicals (OH.) were generated by the reaction of ammonium iron(II) sulfate hexahydrate and H2O2.
The reactivity of metal complex of Formula (IV) with H2O2 was examined by emission titrations and the emission titration traces and corresponding titration curve are shown in FIGS. 5 and 6, respectively. […] The detection limit was calculated to be 1.84 μM.

The nature of data set [5]: Selectivity study: emission response toward reactive oxygen species. In kind it is physicochemical. As to conditions: complex 10 μM, buffer pH 7.4/DMSO (99:1), 1.5 h. Here is the method: as §1, with “H2O2. […]” for “H2O2.”
For data set [6], the system named is HeLa cells. The data set is described as follows: Cytotoxicity by MTT assay. It counts as cell-based. The method, then:
To confirm the suitability of the possibility of metal complex of Formula (IV) as phosphorescent sensor for intracellular H2O2, the cytotoxicity of metal complex of Formula (IV) was examined by the MTT assay.
HeLa cells were cultured in growth medium in a humidified chamber at 37° C. under a 5% CO2 atmosphere. The cells were subcultured every 2-3 days. HeLa cells were seeded in a 96-well flat-bottomed microplate (10,000 cells/well) in a growth medium (100 μL) and incubated at 37° C. under a 5% CO2 atmosphere for 24 h. […] The wells containing untreated cells were used as blank controls. […] Then MTT in PBS (5 mg/mL; 10 μL) was added to each well. The microplate was then incubated for another 4 h. The medium was removed and DMSO (200 μL) was added to each well. The microplate was further incubated for 10 min. The absorbance of the solutions at 570 nm was measured with a SPECTRAmax 340 microplate reader (Molecular Devices Corp., Sunnyvale, Calif.). Percentage cell survival was calculated relative to the absorbance of the control for each treatment. The viability of untreated cells was assumed to be 100%.

Data set [7] relates to HeLa cells. In words: Live-cell imaging by laser-scanning confocal microscopy (uptake, mitochondrial co-staining, intracellular H2O2). It counts as cell-based. Here is the method: For co-staining experiments, HeLa cells in growth medium were seeded on a sterilized coverslip in a 35-mm tissue culture dish and grown at 37° C. under a 5% CO2 atmosphere for 48 h. The medium was removed and the cells were incubated with metal complex of Formula (IV) (10 μM) in growth medium/DMSO (99:1, v/v) for 40 min and then with MitoTracker Deep Red FM (100 nM) in a FBS-free medium for another 20 min. Prior to imaging, the cells were washed with PBS (1 mL×3), mounted onto a sterilized glass slide, and then imaged using a Leica TCS SPE confocal microscope with an oil immersion 63× objective. The excitation wavelength for metal complex of Formula (IV) was 405 nm and that of MitoTracker Deep Red FM was 633 nm. The Pearson's coefficient was determined by the program Image J (version 1.45k). For imaging of intracellular H2O2, HeLa cells in growth medium were seeded on a sterilized coverslip in a 35-mm tissue culture dish and grown at 37° C. under a 5% CO2 atmosphere for 48 h. The medium was removed and the cells were incubated with metal complex of Formula (IV) (10 μM) in growth medium/DMSO (99:1, v/v) for 1 h. The stained cells were washed with PBS (1 mL×3) and further treated with H2O2 (1 mM) in growth medium for another 2 h. Prior to imaging, the cells were washed with PBS (1 mL×3), mounted onto a sterilized glass slide, and then imaged using a Leica TCS SPE confocal microscope with an oil immersion 63× objective.
The use of metal complex of Formula (IV) for intracellular H2O2-sensing was evaluated by laser-scanning confocal microscopy. […] (FIG. 10D to 10F). This implies that the internalization of metal complex of Formula (IV) involved an energy-requiring pathway such as endocytosis.
With reference to FIG. 11A to 11C, the metal complex of Formula (IV) was localized in the mitochondria (Pearson's coefficient: 0.99).

[8] abbreviates: Potassium phosphate buffer (50 mM, pH 7.4)/MeOH (7:3, v/v).

By IC50 is commonly meant the concentration that inhibits the measured activity by half. Low values mean greater potency in that assay, high ones weaker potency in that assay.

For the molecule `O=S(=O)([O-])C(F)(F)F.[C-]#[O+].[C-]#[O+].[C-]#[O+].[Re+].c1ccncc1.c1cnc2c(c1)ccc1cccnc12` [[Re(phen)(CO)3(pyridine)](CF3SO3)], in data set [1], the “φem of standard solution” value was 0.18.

In the case of “[Re(Ph2-phen)(CO)3(py-3-C(═O)C(═O)C6H3(NH2)(NO2)](CF3SO3) [Metal complex of Formula (IV)]”, in data set [2] (CH3CN), the Φem turned out to be 0.007, the λem is recorded as 554 nm and the τo was 4.83 μs. In data set [2] (setting [8]), this molecule came in with a Φem of 0.005, a λem of 557 nm and a τo of 3.14 μs. This molecule returned a luminescence quantum yield in data set [2] (upon irradiation, very weak MLCT emission) of less than 0.007. Moreover, the “pseudo first-order rate constant (kobs)” value in data set [3] (complex 10 μM, H2O2 (1 mM), aerated potassium phosphate buffer (50 mM, pH 7.4)/DMSO (99:1, v/v)) was “(0.6375±0.0092)×10^−3 s^−1”. Further, in data set [3] (slope of kobs versus [H2O2], potassium phosphate buffer (50 mM, pH 7.4)/DMSO (99:1, v/v)), the second-order rate constant came out at 0.7301 ± 0.0134 M⁻¹ s⁻¹. Further, the “emission enhancement (I/I0)” value in data set [4] ([H2O2]=250 μM, 1.5 h) is given as 20.6. In data set [4], the “H2O2 concentration range of good linearity of emission intensity enhancement” value was in the range of 0 to 50 µM and the “detection limit for H2O2” value was found to be 1.84 µM. Further, the “emission response toward H2O2” value in data set [5] (H2O2 100 μM) is “significant emission enhancement”. Also, the “emission response toward TBHP, 1O2, OH., NO, O2−, ClO−” value in data set [5] (ROS 100 μM) is recorded as “did not induce any significant changes in the emission intensity”. Besides, in data set [6] (10 μM, 1 h), the “cytotoxic effect under imaging experiment conditions” value is listed as “would not cause significant cytotoxic effect”. Moreover, it took 3.34 ± 0.05 µM to reach half-maximal inhibition in data set [6] (HeLa cells, 48 h, MTT) (IC50). In addition, in data set [7] (HeLa cells, 10 μM, 1 h, 4° C.), the “emission intensity of the cells at lowered incubation temperature” value is “significantly reduced”. Besides, the intracellular emission result in data set [7] (HeLa cells, 10 μM, 1 h, 37° C.) is listed as “weak intracellular emission in the perinuclear region”. Moreover, in data set [7] (complex-stained HeLa cells, H2O2 1 mM, 2 h), the “intracellular emission intensity after incubation with H2O2” value was “significantly enhanced”.

These data come from patent US9890327B2, “Phosphorescent transition metal complex, its preparation and use” (City University of Hong Kong, priority 2015, dated 2018).
